According to patent US20120219496A1, “GADOLINIUM-LINKED NANOCLUSTERS” (priority 2009, published 2012):

Assay: R1 relaxivity determination (T1 relaxometry, slope of 1/T1 vs. Gd concentration)
Format: physicochemical
Details: 1.41 T (60 MHz), 40° C.
Method: Instrumentation. Dynamic light scattering (DLS) measurements were performed on a Zetasizer Nano from Malvern Instruments. The scattering angle was held constant at 90°. Microscopy measurements were performed on an Olympus IX 81 motorized inverted fluorescence microscope equipped with an Andor DU897 EMCCD, an X-Cite 120 excitation source (EXFO) and Sutter excitation and emission filter wheels. Image of FITC was acquired using the filter set HQ480/40, HQ535/50, Q505LP. Filter set was purchased from Chroma. Tl-relaxation times were determined using a Bruker mq60 MR relaxometer operating at 1.41 T (60 MHz). ICP-AES was performed by VHG Laboratories (Manchester, N.H.). Transmission electron microscopy (TEM) was performed with a JEOL 2010 electron microscope operated at 80 kV.
To assess the paramagnetic properties of the Gd-conjugated DNCs, the amount of Gd within the sample was determined by inductively coupled plasma atomic emission spectroscopy (ICP-AES). Tl-relaxation times were determined using a Bruker mq60 MR relaxometer operating at 1.41 T (60 MHz) and at 40° C. […] It is likely that only a marginal increase in R1 was observed, despite the larger size of DNCs, due to the “saturation” of ion relaxivity, which has also previously been reported for high generation dendrimers. As a point of comparison, Gd-DTPA was determined to have an R1 of 3.9 mM^−1 s^−1 per Gd.

R1 relaxivity per Gd: 3.9 mM⁻¹ s⁻¹
SMILES: O=C([O-])CN(CCN(CC(=O)[O-])CC(=O)O)CCN(CC(=O)[O-])CC(=O)O.[Gd+3] [Gd-DTPA]
